Converted amounts (≈) assume the structure as drawn.
Assays:
Test in all cases: ≥ marks a high value that may be exact or a test limit, other limits are often not marked, values filed in µg/mL are converted to µM
[1] = tested on: Acinetobacter baumannii
[2] = tested on: Klebsiella pneumoniae ATCC 700603
[3] = tested on: Escherichia coli ATCC 25922
[4] = tested on: Staphylococcus aureus ATCC 25923
[5] = tested on: Pseudomonas aeruginosa ATCC 9027
[6] = tested on: Staphylococcus aureus ATCC 6538
[7] = tested on: Acinetobacter baumannii ATCC 19606
[8] = tested on: Pseudomonas aeruginosa PAO1
[9] = tested on: Pseudomonas aeruginosa ATCC 27853
[10] = tested on: Bacillus subtilis
[11] = tested on: Candida albicans ATCC 2002
[12] = tested on: Escherichia coli
[13] = tested on: Staphylococcus aureus
[14] = tested on: Escherichia coli DH5alpha
[15] = tested on: Escherichia coli UB1005

Compound: CC[C@H](C)[C@H](NC(=O)[C@H](C)N)C(=O)N[C@@H](Cc1c[nH]c2ccccc12)C(=O)N[C@@H](CCCN=C(N)N)C(=O)N[C@@H](CCCCN)C(=O)N[C@@H](C)C(=O)N[C@H](C(=O)N[C@@H](CCCN=C(N)N)C(=O)N[C@@H](CCCN=C(N)N)C(=O)N[C@@H](CC(C)C)C(=O)N[C@H](C(=O)N[C@@H](CCCCN)C(=O)N[C@@H](CC(C)C)C(=O)N[C@H](C(=O)N[C@H](C(N)=O)C(C)C)[C@@H](C)CC)C(C)C)[C@@H](C)O [AIWRKATRRLVKLIV]
- MIC [1]: 3.12 µM (≈ 5.69 µg/mL)
- MIC [2]: 25 µM (≈ 45.6 µg/mL)
- MIC [3]: 12.5 µM (≈ 22.8 µg/mL)
- MIC [4]: 12 µM (≈ 21.9 µg/mL)
- MIC [5]: 3 µM (≈ 5.47 µg/mL)

Compound: CC(C)C[C@H](NC(=O)[C@H](C)NC(=O)[C@H](CC(C)C)NC(=O)[C@H](CC(C)C)NC(=O)[C@H](CCCCN)NC(=O)[C@H](CCCCN)NC(=O)[C@H](C)NC(=O)[C@H](CC(C)C)NC(=O)[C@H](CCCCN)NC(=O)[C@H](C)NC(=O)[C@H](CC(C)C)NC(=O)[C@H](CCCCN)NC(=O)[C@H](CCCCN)NC(=O)[C@H](C)NC(=O)[C@@H](N)Cc1ccccc1)C(N)=O [FAKKLAKLAKKLLAL]
- MIC [6]: 3.02 µM (≈ 5 µg/mL)
- MIC [5]: 30.2 µM (≈ 50 µg/mL)

Compound: CC(C)C[C@H](NC(=O)[C@H](C)NC(=O)[C@H](Cc1ccccc1)NC(=O)[C@H](CCCCN)NC(=O)[C@H](CCCCN)NC(=O)[C@H](C)NC(=O)[C@H](CC(C)C)NC(=O)[C@H](CCCCN)NC(=O)[C@H](C)NC(=O)[C@H](CC(C)C)NC(=O)[C@H](CC(C)C)NC(=O)[C@H](CCCCN)NC(=O)[C@H](C)NC(=O)[C@@H](N)Cc1ccccc1)C(N)=O [FAKLLAKLAKKFAL]
- MIC [6]: 32 µM (≈ 50 µg/mL)
- MIC [5]: 128 µM (≈ 200 µg/mL)

Compound: CC[C@H](C)[C@H](NC(=O)CNC(=O)[C@H](CCCCN)NC(=O)[C@H](CC(C)C)NC(=O)[C@@H](N)Cc1ccccc1)C(=O)N[C@H](C(=O)N[C@@H](CC(=O)O)C(=O)N[C@H](C(=O)N[C@H](C(=O)N[C@@H](CO)C(=O)N[C@@H](CC(N)=O)C(=O)N[C@@H](Cc1c[nH]c2ccccc12)C(=O)N[C@@H](CC(C)C)C(N)=O)C(C)C)[C@@H](C)O)[C@@H](C)CC [FLKGIIDTVSNWL]
- MIC [7]: > 26.6 µM

Compound: CC[C@H](C)[C@H](NC(=O)CNC(=O)[C@H](CO)NC(=O)[C@H](CC(C)C)NC(=O)[C@H](C)NC(=O)CNC(=O)[C@H](CC(C)C)NC(=O)[C@@H](NC(=O)[C@H](CC(C)C)NC(=O)[C@@H]1CCCN1C(=O)[C@H](CC(C)C)NC(=O)[C@@H](N)Cc1ccccc1)C(C)C)C(=O)N[C@@H](CC(C)C)C(=O)N1CCC[C@H]1C(=O)N[C@@H](CCCCN)C(=O)N[C@H](C(=O)N[C@@H](CC(C)C)C(N)=O)[C@@H](C)CC [FLPLVLGALSGILPKIL]
- MIC [8]: 2.66 µM (≈ 4.69 µg/mL)
- MIC [9]: 2.66 µM (≈ 4.69 µg/mL)
- MIC [4]: 2.66 µM (≈ 4.69 µg/mL)
- MIC [10]: 5.32 µM (≈ 9.37 µg/mL)
- MIC [11]: 4.68 µM (≈ 8.26 µg/mL)

Compound: CC[C@H](C)[C@H](NC(=O)[C@H](CO)NC(=O)[C@H](C)NC(=O)[C@@H]1CCCN1C(=O)[C@H](CC(C)C)NC(=O)CN)C(=O)N[C@@H](CO)C(=O)N[C@@H](Cc1c[nH]c2ccccc12)C(=O)N[C@H](C(=O)N[C@@H](CCCCN)C(=O)N[C@@H](CCCN=C(N)N)C(=O)N[C@@H](CCCCN)C(=O)N[C@@H](CCCN=C(N)N)C(=O)N[C@@H](CCC(N)=O)C(=O)N[C@@H](CCC(N)=O)C(N)=O)[C@@H](C)CC [GLPASISWIKRKRQQ]
- MIC [12]: > 141 µM
- MIC [13]: 141 µM (≈ 250 µg/mL)
- MIC [10]: 17.6 µM (≈ 31.2 µg/mL)

Compound: CC(C)C[C@H](NC(=O)[C@@H]1CCCN1C(=O)CNC(=O)[C@@H]1CCCN1C(=O)[C@H](CC(C)C)NC(=O)CN)C(=O)NCC(=O)N1CCC[C@H]1C(=O)N[C@@H](C)C(=O)NCC(=O)N1CCC[C@H]1C(=O)N[C@@H](CCCCN)C(=O)O [GLPGPLGPAGPK]
- MIC [6]: 1330 µM (≈ 1410 µg/mL)

Compound: CC[C@H](C)[C@H](NC(=O)[C@@H](NC(=O)[C@@H]1CCCN1C(=O)[C@@H](NC(=O)[C@@H]1CCCN1C(=O)[C@H](CCCCN)NC(=O)[C@H](CCCCN)NC(=O)[C@H](CO)NC(=O)CN)C(C)C)[C@@H](C)CC)C(=O)N[C@@H](Cc1ccc(O)cc1)C(=O)N[C@H]1CSSC[C@@H](C(=O)N[C@@H](CCC(N)=O)C(=O)N[C@@H](CCCN=C(N)N)C(=O)N[C@@H](CCSC)C(=O)O)NC(=O)[C@H](CCCCN)NC(=O)CNC(=O)[C@H]([C@@H](C)O)NC(=O)[C@H](CCCN=C(N)N)NC(=O)[C@H](CCCN=C(N)N)NC(=O)[C@H](CCC(N)=O)NC1=O [GSKKPVPIIYCQRRTGKCQRM]
- MIC [2]: 3.27 µM (≈ 7.99 µg/mL)
- MIC [3]: 1.63 µM (≈ 4 µg/mL)

Compound: NCCCC[C@H](NC(=O)[C@H](Cc1c[nH]c2ccccc12)NC(=O)CN)C(=O)N[C@@H](CCCN=C(N)N)C(=O)N[C@@H](CCCCN)C(=O)N[C@@H](CCCN=C(N)N)C(=O)N[C@@H](Cc1ccccc1)C(=O)NCC(=O)O [GWKRKRFG]
- MIC [9]: > 200 µM
- MIC [4]: > 200 µM
- MIC [10]: ≥ 200 µM
- MIC [14]: ≥ 200 µM

Compound: CC[C@H](C)[C@H](N)C(=O)N[C@@H](CC(N)=O)C(=O)N[C@@H](Cc1c[nH]c2ccccc12)C(=O)N[C@@H](CCCCN)C(=O)N[C@@H](CCCCN)C(=O)N[C@H](C(=O)N[C@@H](Cc1ccccc1)C(=O)N[C@@H](CCC(N)=O)C(=O)N[C@@H](CCCCN)C(=O)N[C@H](C(=O)N[C@@H](CCCCN)C(=O)N[C@@H](CC(N)=O)C(=O)N[C@@H](CC(C)C)C(=O)N[C@H](C(N)=O)C(C)C)C(C)C)[C@@H](C)CC [INWKKIFQKVKNLV]
- MIC [12]: 8 µM (≈ 14.1 µg/mL)
- MIC [10]: ≥ 45 µM

Compound: CC[C@H](C)[C@H](N)C(=O)N[C@@H](CC(N)=O)C(=O)N[C@@H](Cc1c[nH]c2ccccc12)C(=O)N[C@@H](CCCCN)C(=O)N[C@@H](CCCCN)C(=O)N[C@@H](CC(C)C)C(=O)NCC(=O)N[C@@H](CCCCN)C(=O)N[C@@H](CCCCN)C(=O)N[C@H](C(=O)N[C@@H](CC(C)C)C(=O)NCC(=O)N[C@@H](C)C(=O)N[C@@H](CC(C)C)C(N)=O)[C@@H](C)CC [INWKKLGKKILGAL]
- MIC [12]: 43 µM (≈ 68 µg/mL)
- MIC [10]: 15.5 µM (≈ 24.5 µg/mL)

Compound: CC[C@H](C)[C@H](N)C(=O)N[C@@H](CC(N)=O)C(=O)N[C@@H](Cc1c[nH]c2ccccc12)C(=O)N[C@@H](CC(C)C)C(=O)N[C@@H](CCCCN)C(=O)N[C@@H](CC(C)C)C(=O)NCC(=O)N[C@@H](CCCCN)C(=O)N[C@@H](CCCCN)C(=O)N[C@@H](CCSC)C(=O)N[C@@H](CCSC)C(=O)N[C@@H](CO)C(=O)N[C@@H](C)C(=O)N[C@@H](CC(C)C)C(=O)O [INWLKLGKKMMSAL]
- MIC [12]: 100 µM (≈ 163 µg/mL)
- MIC [10]: 22.5 µM (≈ 36.7 µg/mL)

Compound: CC[C@H](C)[C@H](NC(=O)[C@H](CO)NC(=O)[C@H](C)NC(=O)[C@@H](NC(=O)[C@@H](N)CCCCN)[C@@H](C)CC)C(=O)NCC(=O)N[C@@H](CCCCN)C(=O)N[C@@H](CCC(=O)O)C(=O)N[C@H](C(=O)N[C@@H](CC(C)C)C(=O)N[C@@H](CCCCN)C(=O)N[C@@H](C)C(=O)N[C@@H](CC(C)C)C(N)=O)C(C)C [KIASIGKEVLKAL]
- MIC [12]: 100 µM (≈ 137 µg/mL)
- MIC [10]: ≥ 100 µM

Compound: CC[C@H](C)[C@H](NC(=O)[C@H](C)NC(=O)[C@H](CCCN=C(N)N)NC(=O)[C@H](Cc1ccc(O)cc1)NC(=O)[C@H](CC(C)C)NC(=O)[C@H](CC(N)=O)NC(=O)[C@H](Cc1ccc(O)cc1)NC(=O)CNC(=O)[C@H](C)NC(=O)[C@@H](NC(=O)[C@@H](NC(=O)[C@@H](NC(=O)[C@H](CCCN=C(N)N)NC(=O)[C@@H](NC(=O)[C@@H](NC(=O)[C@@H](NC(=O)[C@@H]1CCCN1C(=O)[C@H](Cc1c[nH]c2ccccc12)NC(=O)[C@H](Cc1ccccc1)NC(=O)[C@H](CCCN=C(N)N)NC(=O)[C@H](CCCCN)NC(=O)[C@@H](NC(=O)[C@@H](N)CCCN=C(N)N)[C@@H](C)CC)C(C)C)C(C)C)[C@@H](C)CC)[C@@H](C)O)C(C)C)C(C)C)C(=O)O [RIKRFWPVVIRTVVAGYNLYRAI]
- MIC [3]: 3.36 µM (≈ 9.38 µg/mL)
- MIC [4]: 13.4 µM (≈ 37.5 µg/mL)
- MIC [10]: 13.4 µM (≈ 37.5 µg/mL)
- MIC [11]: 0.84 µM (≈ 2.34 µg/mL)

Compound: CC[C@H](C)[C@H](NC(=O)[C@@H](NC(=O)[C@@H](NC(=O)[C@@H]1CCCN1C(=O)[C@H](Cc1c[nH]c2ccccc12)NC(=O)[C@H](Cc1ccccc1)NC(=O)[C@H](CCCN=C(N)N)NC(=O)[C@H](CCCCN)NC(=O)[C@@H](NC(=O)[C@@H](N)CCCN=C(N)N)[C@@H](C)CC)C(C)C)C(C)C)C(=O)N[C@@H](CCCN=C(N)N)C(=O)N[C@H](C(=O)N[C@H](C(=O)N[C@H](C(=O)N[C@@H](C)C(=O)NCC(=O)N[C@@H](Cc1ccc(O)cc1)C(=O)N[C@@H](CC(N)=O)C(=O)N[C@@H](CC(C)C)C(=O)N[C@@H](Cc1ccc(O)cc1)C(=O)N[C@@H](CCCN=C(N)N)C(=O)N[C@@H](C)C(=O)O)C(C)C)C(C)C)[C@@H](C)O [RIKRFWPVVIRTVVAGYNLYRA]
- MIC [3]: 1.75 µM (≈ 4.69 µg/mL)
- MIC [4]: 28 µM (≈ 75 µg/mL)
- MIC [11]: 1.75 µM (≈ 4.69 µg/mL)

Compound: CC(C)C[C@H](NC(=O)[C@H](Cc1ccc(O)cc1)NC(=O)[C@@H]1CCCN1C(=O)[C@@H]1CCCN1C(=O)[C@H](CCCCN)NC(=O)[C@H](CCCN=C(N)N)NC(=O)[C@@H](N)C(C)C)C(=O)N1CCC[C@H]1C(=O)N[C@@H](CCCN=C(N)N)C(=O)N1CCC[C@H]1C(=O)N[C@@H](CCCN=C(N)N)C(=O)N[C@@H](Cc1c[nH]c2ccccc12)C(=O)N1CCC[C@H]1C(=O)N[C@@H](CCCN=C(N)N)C(=O)N[C@@H](CCCN=C(N)N)C(=O)N[C@@H](Cc1ccccc1)C(=O)N[C@@H](Cc1ccc(O)cc1)C(=O)N[C@@H](CC(N)=O)C(=O)N[C@@H](CCCN=C(N)N)C(N)=O [VRKPPYLPRPRWPRRFYNR]
- MIC [8]: 3.13 µM (≈ 8 µg/mL)
- MIC [4]: 0.391 µM (≈ 1 µg/mL)
- MIC [15]: 0.979 µM (≈ 2.5 µg/mL)

— DBAASP
